US20240043420A1, “7-AZAINDOLE COMPOUNDS FOR INHIBITION OF BCR-ABL TYROSINE KINASES” (EnLiven Therapeutics, Inc., priority 2020, published 2024)
Where two headings read alike, the source gives them in different places.

Assays:
HL60 cells = assay: HL60 cell proliferation assay (CellTiter-Glo); assay type: cell-based; settings: CellTiter-Glo viability, read-out: Cell Line (IC50, nM) HL60
Protocol: (§1) K562 and HL60 cells, cultured in Iscove's Modified Dulbecco's Media (IMDM) supplemented with 10% FBS, were harvested at 50-80% confluency and plated at 2,000 cells per well (K562) or 1,500 cells per well (HL60) in 384-well tissue culture plates. A subset of wells contained media only (low control, LC). Compounds were serially diluted in DMSO. 40 nL of compound or DMSO only (high control, HC) were added to each well using an Echo 550 liquid handler (Labcyte). The plates were placed in a 37° C. incubator with 5% CO2 for 72 hours. Cell viability was measured using a CellTiter-Glo luminescent cell viability assay (Promega), which allows for relative quantification of metabolically active cells by luminescence-based measurements of intracellular ATP concentrations. Briefly, plates were removed from the incubator and equilibrated for 15 minutes at room temperature prior to the addition of 40 μL of CellTiter-Glo reagent. Plates were then incubated for 30 minutes at room temperature. Luminescence was measured using an EnSpire plate reader (Perkin Elmer). As noted above, luminescence values from wells with DMSO only or media without cells were used as high and low controls (HC and LC), respectively. Normalized percent viability was calculated as follows: percent viability=100×(Lumsample−LumLC)/(LumHC−LumLC).

K562 cells = assay: K562 cell proliferation assay (CellTiter-Glo); assay type: cell-based; settings: CellTiter-Glo viability, read-out: Cell Line (IC50, nM) K562
Protocol: as §1

ABL1 = target: T1, ABL1 (Homo sapiens, UniProt P00519); assay: Luminescence-based ABL kinase assay (ADP-Glo, 300 μM ATP); assay type: biochemical
T1 construct: purchased Carna Biosciences
Protocol: (§2) Kinase activity of ABL1 was measured using the ADP-Glo system (Promega), which measures formation of ADP using a luminescence-based method. Compounds were serially diluted in DMSO. 20 nL of compound or DMSO only (high control, HC) were added to a 384-well plate (OptiPlate-384, PerkinElmer) using an Echo550 liquid handler (Labcyte). 15 μL of kinase solution (10 mM MgCl2, 0.01% Brij-35, 2 mM DTT, 0.05% BSA, 1 mM EGTA, 50 mM HEPES pH 7.5, and 3.325 nM ABL1 [Carna Biosciences]) were added to each well of the 384-well plate containing the compounds. No enzyme control wells were included (low control, LC). The plate was incubated at room temperature for 30 minutes. 5 μL of a second solution containing 10 mM MgCl2, 0.01% Brij-35, 2 mM DTT, 0.05% BSA, 1 mM EGTA, 50 mM HEPES pH 7.5, 6 μM Peptide 2 (Perkin Elmer, Cat No 760346), and 1.2 mM ATP were added to each well to start the kinase reaction. The plate was incubated for 90 minutes at room temperature. 20 μL of ADP-Glo reagent (Promega) were then added to each well and the plate was incubated for 40 minutes at room temperature. 40 μL of kinase detection reagent (Promega) was added to each well and the plate was incubated for an additional 45 minutes at room temperature. During this step, ADP was converted to ATP, a substrate for luciferase, to produce luminescence signal. Luminescence was measured on an Envision plate reader (Perkin Elmer). Luminescence signal positively correlates with kinase activity. The percent kinase activity was calculated as follows: percent kinase activity=100×(Lumsample−LumLC)/(LumHC−LumLC). As noted above, DMSO only and no enzyme wells were used as high and low controls, respectively. IC50 values were calculated using the XLFit software.

ABL1 (T315I) = ABL1 (T315I) (Homo sapiens, UniProt P00519, T315I); assay: Luminescence-based ABL kinase assay (ADP-Glo, 300 μM ATP), T315I mutant; assay type: biochemical
Protocol: as §2

| Compound | IC50 (HL60 cells; Homo sapiens, HL-60, 72 h) [nM] | IC50 (K562 cells; Homo sapiens, K562, 72 h) [nM] | IC50 (ABL1) [nM] | IC50 (ABL1 (T315I)) [nM] | IC50 (K562 cells; 72 hours) [nM] | IC50 (HL60 cells; 72 hours) [nM] |
| --- | --- | --- | --- | --- | --- | --- |
| CCOc1ncccc1-c1n[nH]c2nc(NC(=O)[C@@H]3C[C@@H]3F)ccc12 [Compound 64, (1S,2S)—N-[3-(2-ethoxypyridin-3-yl)-1H-pyrazolo[3,4-b]pyridin-6-yl]-2-fluorocyclopropane-1-carboxamide] | > 10000 | 610 | 56.9 | 140 | – | – |
| COc1nc2[nH]cnc2cc1-c1c[nH]c2nc(NC(=O)[C@@H]3C[C@@H]3F)ccc12 [Compound 83, (1S,2S)-2-fluoro-N-(3-[5-methoxy-3H-imidazo[4,5-b]pyridin-6-yl]-1H-pyrrolo[2,3-b]pyridin-6-yl)cyclopropane-1-carboxamide] | > 10000 | 48.8 | 1.52 | 1.74 | – | – |
| COc1cc2ocnc2cc1-c1c[nH]c2nc(NC(=O)[C@@H]3C[C@@H]3F)ccc12 [Compound 88, (1S,2S)-2-fluoro-N-(3-(6-methoxybenzo[d]oxazol-5-yl)-1H-pyrrolo[2,3-b]pyridin-6-yl)cyclopropane-1-carboxamide] | > 10000 | 84.1 | 18.6 | 30.9 | – | – |
| O=C(Nc1ccc2c(-c3cccc(O)c3)c[nH]c2n1)C1CC1 [Compound 13, N-[3-(3-hydroxyphenyl)-1H-pyrrolo[2,3-b]pyridin-6-yl]cyclopropanecarboxamide] | 4450 | 202 | 96.6 | 9.74 | – | – |
| COc1cccc(F)c1-c1c[nH]c2nc(NC(=O)[C@H]3C[C@H]3F)ccc12 [Compound 22, (1R,2R)-2-fluoro-N-[3-(2-fluoro-6-methoxyphenyl)-1H-pyrrolo[2,3-b]pyridin-6-yl]cyclopropane-1-carboxamide] | > 10000 | 421 | 78.9 | 7.17 | – | – |
| COc1nc2cn[nH]c2cc1-c1c[nH]c2nc(NC(=O)C3CC3)ccc12 [Compound 60, N-(3-[5-methoxy-1H-pyrazolo[4,3-b]pyridin-6-yl]-1H-pyrrolo[2,3-b]pyridin-6-yl)cyclopropanecarboxamide] | > 10000 | 5170 | 218 | 417 | – | – |
| COc1cc2nccn2cc1-c1c[nH]c2nc(NC(=O)[C@@H]3C[C@@H]3F)ccc12 [Compound 72, (1S,2S)-2-fluoro-N-(3-(7-methoxyimidazo[1,2-a]pyridin-6-yl)-1H-pyrrolo[2,3-b]pyridin-6-yl)cyclopropane-1-carboxamide] | > 10000 | 1020 | 70.2 | 162 | – | – |
| COc1cccc(OC)c1-c1c[nH]c2nc(NC(=O)C3CC3)ccc12 [Compound 45, N-[3-(2,6-dimethoxyphenyl)-1H-pyrrolo[2,3-b]pyridin-6-yl]cyclopropanecarboxamide] | > 10000 | 52.7 | – | – | – | – |
| CNc1ccc(-c2c[nH]c3nc(NC(=O)C4CC4)ccc23)c(OC)n1 [Compound 30, N-[3-[2-methoxy-6-(methylamino)pyridin-3-yl]-1H-pyrrolo[2,3-b]pyridin-6-yl]cyclopropanecarboxamide] | – | – | 148 | 90.2 | – | – |
| COc1cc2cn[nH]c2cc1-c1c[nH]c2nc(NC(=O)[C@H]3C[C@H]3F)ccc12 [Compound 59, (1R,2R)-2-fluoro-N-[3-(5-methoxy-1H-indazol-6-yl)-1H-pyrrolo[2,3-b]pyridin-6-yl]cyclopropane-1-carboxamide] | – | – | 8.62 | 11 | – | – |
| O=C(Nc1ccc2c(-c3c(F)cccc3F)c[nH]c2n1)C1CC1 [Compound 46, N-(3-(2,6-difluorophenyl)-1H-pyrrolo[2,3-b]pyridin-6-yl)cyclopropanecarboxamide] | – | – | 86.4 | 20.6 | – | – |

The remaining lines, values ahead:

| IC50 (HL60 cells; Homo sapiens, HL-60, 72 h) [nM] | IC50 (K562 cells; Homo sapiens, K562, 72 h) [nM] | IC50 (ABL1) [nM] | IC50 (ABL1 (T315I)) [nM] | IC50 (K562 cells; 72 hours) [nM] | IC50 (HL60 cells; 72 hours) [nM] | Compound |
| --- | --- | --- | --- | --- | --- | --- |
| > 10000 | 48 | 12.5 | 17.8 | – | – | COc1ncnc(OC)c1-c1c[nH]c2nc(NC(=O)[C@@H]3C[C@@H]3F)ccc12 [Compound 102, (1S,2S)—N-[3-(4,6-dimethoxypyrimidin-5-yl)-1H-pyrrolo[2,3-b]pyridin-6-yl]-2-fluorocyclopropane-1-carboxamide] |
| > 10000 | 32 | – | – | – | – | COc1nc2[nH]ncc2cc1-c1c[nH]c2nc(NC(=O)[C@@H]3C[C@@H]3F)ccc12 [Compound 144, (1S,2S)-2-fluoro-N-(3-[6-methoxy-1H-pyrazolo[3,4-b]pyridin-5-yl]-1H-pyrrolo[2,3-b]pyridin-6-yl)cyclopropane-1-carboxamide] |
| – | – | 15 | 20.9 | 55.3 | – | COc1cccc(OC)c1-c1c[nH]c2nc(NC(=O)C3CC3CCN(C)C)ccc12 (single isomer, unassigned) [Example S205, Enantiomer 2, N-(3-(2,6-dimethoxyphenyl)-1H-pyrrolo[2,3-b]pyridin-6-yl)-2-(2-(dimethylamino)ethyl)cyclopropane-1-carboxamide] |
| 6590 | – | – | – | 11.1 | – | COc1nccc(OC2CC2)c1-c1c[nH]c2nc(NC(=O)C3CC3OCCN3CCC3)ccc12 (single isomer, unassigned) [Example S221, Enantiomer 1, 2-(2-(azetidin-1-yl)ethoxy)-N-(3-(4-cyclopropoxy-2-methoxypyridin-3-yl)-1H-pyrrolo[2,3-b]pyridin-6-yl)cyclopropane-1-carboxamide] |
| – | – | – | – | 39.7 | 8660 | COc1nccc(OC2CC2)c1-c1c[nH]c2nc(NC(=O)C3CC3OCCN3CCC3)ccc12 (single isomer, unassigned) [Example S221, Enantiomer 2, 2-(2-(azetidin-1-yl)ethoxy)-N-(3-(4-cyclopropoxy-2-methoxypyridin-3-yl)-1H-pyrrolo[2,3-b]pyridin-6-yl)cyclopropane-1-carboxamide] |
| – | – | 30 | 27.2 | – | – | COc1cccc(OC)c1-c1c[nH]c2nc(NC(=O)C3CC3CN3CCNCC3)ccc12 (single isomer, unassigned) [Example S150, Enantiomer 2, N-[3-(2,6-dimethoxyphenyl)-1H-pyrrolo[2,3-b]pyridin-6-yl]-2-(piperazin-1-ylmethyl)cyclopropane-1-carboxamide] |
| – | – | 98.2 | 105 | – | – | COc1c(F)cccc1-c1n[nH]c2nc(NC(=O)[C@@H]3C[C@@H]3F)ccc12 [Compound 100, (1S,2S)-2-fluoro-N-(3-(3-fluoro-2-methoxyphenyl)-1H-pyrazolo[3,4-b]pyridin-6-yl)cyclopropane-1-carboxamide] |
| – | – | – | – | 57.3 | > 10000 | COc1nccc(OC2CC2)c1-c1c[nH]c2nc(NC(=O)C3CC3OCCN(C)C)ccc12 (single isomer, unassigned) [Example S220, Enantiomer 2, N-(3-(4-cyclopropoxy-2-methoxypyridin-3-yl)-1H-pyrrolo[2,3-b]pyridin-6-yl)-2-(2-(dimethylamino)ethoxy)cyclopropane-1-carboxamide] |
| – | – | 10.6 | 15 | 21.5 | – | COc1cccc(OC)c1-c1c[nH]c2nc(NC(=O)C3CC3CCN(C)C)ccc12 (single isomer, unassigned) [Example S205, Enantiomer 1, N-(3-(2,6-dimethoxyphenyl)-1H-pyrrolo[2,3-b]pyridin-6-yl)-2-(2-(dimethylamino)ethyl)cyclopropane-1-carboxamide] |
| > 10000 | – | – | – | 24.9 | – | COc1nccc(OC2CC2)c1-c1c[nH]c2nc(NC(=O)C3CC3OCCN(C)C)ccc12 (single isomer, unassigned) [Example S220, Enantiomer 1, N-(3-(4-cyclopropoxy-2-methoxypyridin-3-yl)-1H-pyrrolo[2,3-b]pyridin-6-yl)-2-(2-(dimethylamino)ethoxy)cyclopropane-1-carboxamide] |
